How the values were obtained:
[1] = format: physicochemical; settings: bitumen extracted from RAP + 5% compound
[2] = Softening point of rejuvenated aged bitumen; format: physicochemical; settings: aged bitumen 50/70 BP + 5% compound
[3] = Loss tangent from DSR frequency sweep at 60° C.; format: physicochemical
Text: In addition, it could be shown that additives according to the present invention perform most of the times better than the common benchmarks according to the standard testing techniques for the low, mid and high temperature range. What cannot be extracted from these measurements however is an indication of the working mechanism.

[4] = Softening point of rejuvenated RAP bitumen; format: physicochemical; settings: bitumen extracted from RAP + 5% compound
[5] = Ageing index (RTFOT ageing) of rejuvenated polymer-modified bitumen; format: physicochemical; settings: Olexobit 45 + 5% compound; viscosity after ageing divided by viscosity before ageing
Text: Herewith, it will be shown that the positive effects of the here claimed rejuvenating agents can also be applied to PmB, in this case Olexobit 45. Olexobit 45 was therefore rejuvenated according to the procedure of Example 1.

Polypropylenglycol bis glycidylether
η(135° C.) [mPas] [1]: 1,100 mPas
SP [° C.] [2]: 54.0 °C
tan δ ([3]; aged bitumen 50/70 BP + 5% compound, lowest frequency): 75
tan δ ([3]; aged bitumen 50/70 PCK Schwedt + 5% compound, lowest frequency): 105
tan δ ([3]; bitumen 20/30 + 5% compound, lowest frequency (0.01 rad/s)): 55
tan δ ([3]; bitumen extracted from RAP + 5% compound, lowest frequency): 45
SP [° C.] [4]: 57.0 °C
AI (ageing index) [5]: 2.2

— US20230220206A1, “REJUVENATING AGENTS FOR ASPHALT RECYCLING” (BASF SE, priority 2020, published 2023)
